Where “and” joins values, the source holds several entries; their conditions need not be identical. Identical values can stand only once. Like-named read-outs stand apart in the source and are kept apart here.
Experiments:
U937 cells [1] = experiment: MTT assay of metabolic activity, U937; assay type: cell-based
[2] = phosphate buffer pH 7.4, 37 °C, nominal concentration 400 µM
Method: For the NMR studies, the compounds were dissolved in DMSO-d6 and a phosphate buffer (50 mM, 5% D2O, pH = 7.4) containing, as an internal standard, 2,2,4,4-tetradeuterumtrimethylsilylpropionic acid (TSP). The NMR experiments were performed in D2O at 25 °C and recorded with a Bruker Avance spectrometer operating at 700 MHz for ^1H, equipped with a 5 mm inverse TXI probe, z-axis gradients, and a Sample Xpress Lite autosampler. The ^1H-NMR spectra were recorded with a spectral window of 15 ppm, 16 k complex points, and a relaxation delay of 10 s for a total of 16 transients.

MCF-10A cells [3] = experiment: MTT assay of metabolic activity, MCF-10A; assay type: cell-based, human
CAL-27 cells [4] = experiment: Trypan blue exclusion viability test, CAL-27; assay type: cell-based, human; details: CAL-27, 24 h
CAL-27 cells [5] = experiment: MTT assay of metabolic activity, CAL-27; assay type: cell-based, human
[6] = system: CAL-27 cells, MCF-10A cells, PBMCs, and U937 cells; details: read-out: IC50 metabolic activity (MTT) in all tested cells; 24 h
MCF-10A cells [7] = experiment: Trypan blue exclusion viability test, MCF-10A; assay type: cell-based, human; details: 24 h
PBMCs = experiment: MTT assay of metabolic activity, PBMCs; assay type: cell-based, human
CAL-27 cells [8] = details: CAL-27, 2-NBDG, 1 h, 10 μM and 20 μM
MCF-10A cells [9] = details: 2-NBDG, 1 h, 10 μM and 20 μM
U937 cells [10] = assay type: cell-based; details: 18 h
12 bp DNA duplex = experiment: NMR interaction with 12 bp DNA duplex; assay type: binding; details: 0.2 mM duplex, 6 h incubation; cisplatin two equivalents, TBT-OCOCF3 two or five equivalents
Method: In order to investigate the mechanisms underlying the cytotoxicity exerted by TBT-OCOF3, a first approach was to verify whether they were based on a direct interaction with DNA, similar to what was described for metal derivatives such as cisplatin. To this purpose, we investigated if TBT-OCOCF3 could bind to DNA using NMR. For TBT-OCOCF3, the 1D and 2D spectra of 12 bp DNA were acquired in the presence or absence of the compound. As a positive control for the interaction, cisplatin was assayed, which forms adducts or inter- and intra-strand crosslinks resulting in interference in the replication machinery, G2/M cell arrest, and cell death by apoptosis or necrosis. A solution containing 0.2 mM of the duplex, whose sequences are indicated in Figure 3, was annealed directly in the NMR tube. The double-helix formation was confirmed by the appearance of low-field signals belonging to the T- and G-NH groups (Figure 3a, left panel). The DNA’s aromatic signals were assigned to the different types of ^1H nuclei using a combination of ^1H-NMR and ^1H-^1H TOCSY experiments (Figure S3 in the Supplementary Materials) and chemical shift values (Figure 3a, right panel).

CAL-27 cells [11] = experiment: Annexin-V/7-AAD double staining flow cytometry, CAL-27; assay type: cell-based, human; details: CAL-27, 4 h; TBT-OCOCF3 20 µM, WMN 0.5 µM; mean ± SD
[12] = 24 h, ± SD, three experiments in triplicate
[13] = 20–80 μM, even at the higher concentration tested

Question: With CCC[CH2][Sn]([Cl])([CH2]CCC)[CH2]CCC [TBT-Cl, tributyltin chloride] as the compound, how does the IC50 (U937 cells [1]) read?
Answer: 420 ± 300 nM

Question: What about the Solubility [2] of the same compound?
Answer: 61 µM

Question: What about the IC50 (MCF-10A cells [3]) of the same compound?
Answer: 1.22 ± 0.41 µM

Question: What about the “Effect on number of viable cells” value (CAL-27 cells [4]; all of the concentrations tested (1.25 to 20 μM)) of the same compound?
Answer: greatly decreased the number of viable cells

Question: And the IC50 (CAL-27 cells [5])?
Answer: 0.91 ± 0.53 µM

Question: What about the IC50 [6] of the same compound?
Answer: ≤ 1000 nM and ~1000 nM

Question: And the Inhibition of viability (MCF-10A cells [7]; all of the tested concentrations (1.25 to 20 μM))?
Answer: ≥ 90%

Question: And the IC50 (PBMCs)?
Answer: ≤ 1000 nM

Question: For CCC[CH2][Sn]([CH2]CCC)([CH2]CCC)[O][Sn]([CH2]CCC)([CH2]CCC)[CH2]CCC [TBT-O, bis(tributyltin) oxide], which IC50 (U937 cells [1]) is on record?
Answer: 1820 ± 210 nM

Question: What about the Glucose uptake inhibition (CAL-27 cells [8]) of the same compound?
Answer: significantly inhibited

Question: And the Solubility [2]?
Answer: 42 µM

Question: What about the IC50 (MCF-10A cells [3]) of the same compound?
Answer: 4.93 ± 2.33 µM

Question: What about the “Effect on trypan-blue-negative (viable) cells recovered” value (CAL-27 cells [4]; 10 µM and 20 µM) of the same compound?
Answer: complete inhibition

Question: And the Glucose uptake inhibition (MCF-10A cells [9])?
Answer: significantly inhibited

Question: And the IC50 (CAL-27 cells [5])?
Answer: 13.2 µM

Question: And the Inhibition of viability (MCF-10A cells [7]; 5 µM)?
Answer: 90%

Question: What about the Inhibition of viability (MCF-10A cells [7]; 10 µM and 20 µM) of the same compound?
Answer: 100%

Question: And the IC50 (PBMCs)?
Answer: 2960 ± 1350 nM

Question: With CO[C@H]1C[C@@H]2CC[C@@H](C)[C@@](O)(O2)C(=O)C(=O)N2CCCC[C@H]2C(=O)O[C@H]([C@H](C)C[C@@H]2CC[C@@H](O)[C@H](OC)C2)CC(=O)[C@H](C)/C=C(\C)[C@@H](O)[C@@H](OC)C(=O)[C@H](C)C[C@H](C)/C=C/C=C/C=C/1C [rapamycin] as the compound, how does the “Autophagic-specific fluorescent green signal compared to control cells” value (U937 cells [10]; U937, 0.5 μM) read?
Answer: significant increase

Question: For N.N.[Cl][Pt][Cl] [Cisplatin, cis-diaminedichloroplatinum (II)], which IC50 (U937 cells [1]; [12]) is on record?
Answer: 38100 ± 3230 nM

Question: What about the “Interaction with 12 bp DNA (change in NMR spectrum)” value (12 bp DNA duplex) of the same compound?
Answer: showed evidence of the interaction

Question: What about the IC50 (MCF-10A cells [3]; [12]) of the same compound?
Answer: 21.5 ± 0.04 µM

Question: And the “Susceptibility of cells to treatment (viable cell number)” value (CAL-27 cells [4]; [13])?
Answer: resistant

Question: What about the IC50 (CAL-27 cells [5]; [12]) of the same compound?
Answer: 139 ± 59.5 µM

Question: And the “Susceptibility of cells to treatment (viable cell number)” value (MCF-10A cells [7]; [13])?
Answer: resistant

Question: What about the IC50 (PBMCs; 24 h, ± SD, IL-2 stimulated PBMCs of healthy individuals) of the same compound?
Answer: 52500 ± 5880 nM

Question: For COC[C@H]1OC(=O)c2coc3c2[C@@]1(C)C1=C(C3=O)[C@@H]2CCC(=O)[C@@]2(C)C[C@H]1OC(C)=O [WMN, wortmannin], which “Anx+/7AAD+ cells” value (CAL-27 cells [11]) is on record?
Answer: 0.78 ± 0.04%

Question: What about the “Anx+/7AAD- cells” value (CAL-27 cells [11]) of the same compound?
Answer: 6.42 ± 2.45%

Question: What about the “Anx-/7AAD+ cells” value (CAL-27 cells [11]) of the same compound?
Answer: 2.99 ± 0.02%

Question: What about the Anx-/7AAD- cells (CAL-27 cells [11]) of the same compound?
Answer: 89.8 ± 4.63%

Question: And the “Effect on rapamycin-induced autophagy” value (U937 cells [10]; U937, wortmannin 0.5 μM cotreatment with rapamycin 0.5 μM)?
Answer: significantly inhibited

— paper PMC10180515, “Biological Evaluation of Triorganotin Derivatives as Potential Anticancer Agents” (Molecules, 2023)
